Laboratory results from patent US6762227B1, “Inhibition of marine biofouling of surfaces” (I-Tech AB, priority 1999, dated 2004).
Read-outs that look alike come from different tables or passages of the source.

Tests used:
[1] = system: Cyprid larvae from Balanus improvisus
Protocol: Cyprid larvae from Balanus improvisus were transferred to Petri dishes containing seawater from the Swedish west coast and medetomidine in various concentrations (0.1 nM, 1 nM, 10 nM, 100 nM and 1 μM). In addition, for control purposes, cyprid larvae were transferred to a Petri dish containing seawater only. After 11 days the cyprids were counted and classified as either 1) settled (established) on the surface of the Petri dish, 2) swimming, i.e. living, not established, or 3) dead. The results in the table are expressed in percentage of the total number of organisms in each group (=n).
This example corresponds to Example 1 with the exception that medetomidine was replaced by clonidine in the concentrations defined in Table 2 below.

cyprid larvae [2] = conditions: for Dead / Settled / Swimming: cleaned, reading after 7 days
Protocol: Petri dishes of hydrophilic polystyrene were filled with a solution of medetomidine in varying concentrations (0 ng/ml 10 ng/ml, 1 μg/ml and 10 μg/ml). […] After a 24 hour incubation period in room temperature the dishes were cleaned thoroughly with seawater. The dishes were then incubated with cyprid larvae in amounts of approximately 20 larvae/dish. Readings were taken under microscope after 7 days, and the larvae were classified as either settled, free-swimming or dead.

cyprid larvae [3] = conditions: cleaned, as Example 3
Protocol: Petri dishes of hydrophilic polystyrene were filled with a solution of medetomidine in varying concentrations (0 ng/ml 10 ng/ml, 1 μg/ml and 10 μg/ml). Like in Example 1, one Petri dish with no medetomidine was used as control. After a 24 hour incubation period in room temperature the dishes were cleaned thoroughly with seawater. The dishes were then incubated with cyprid larvae in amounts of approximately 20 larvae/dish. Readings were taken under microscope after 7 days, and the larvae were classified as either settled, free-swimming or dead.
Example 3 was repeated, with the difference that Petri dishes of hydrophobic polystyrene were used instead of hydrophilic dishes.

[4] = system: acorn barnacles (Balanus improvisus); conditions: for Number of Balanus improvisus/10 cm^2: acrylate-based paint with 0.02% by weight medetomidine
Protocol: Medetomidine was added to an acrylate-based paint formula to a concentration of 0.02% by weight (or 170 μg/ml). The paint was then applied on 10 test surfaces dimensioned 10×10 cm^2. The surfaces were allowed to dry at room temperature and were then mounted on racks, which were placed at a depth of about one meter in a bay in the sea offshore from Strömstad, Sweden, and were allowed to remain there during August and September of 1999. After 2, 4 and 8 weeks, respectively, the test surfaces were removed from the sea and the number of acorn barnacles (Balanus improvisus) were counted.

[5] = system: tube building polychaetes (Hydroides elegans); conditions: for Dead / Settled / Swimming: incubated two days
Protocol: The polychaete larvae were incubated for two days in Petri dishes containing sea water and were then classified as either settled, free swimming or dead, like in Example 1. The water originated from the coast outside Sydney, Australia, and the experiment was carried out in May 1999.

[6] = medetomidine 0.1 nM, after 11 days, % of total organisms
[7] = medetomidine 1 nM, after 11 days, % of total organisms
[8] = medetomidine 10 nM, after 11 days, % of total organisms
[9] = medetomidine 100 nM, after 11 days, % of total organisms
[10] = medetomidine 1000 nM, after 11 days, % of total organisms
[11] = hydrophilic polystyrene dish pre-incubated 24 h with medetomidine 1 ng/ml
[12] = hydrophilic polystyrene dish pre-incubated 24 h with medetomidine 10 ng/ml
[13] = hydrophilic polystyrene dish pre-incubated 24 h with medetomidine 1000 ng/ml
[14] = hydrophilic polystyrene dish pre-incubated 24 h with medetomidine 10000 ng/ml
[15] = hydrophobic polystyrene dish pre-incubated with medetomidine 1 ng/ml
[16] = hydrophobic polystyrene dish pre-incubated with medetomidine 10 ng/ml
[17] = hydrophobic polystyrene dish pre-incubated with medetomidine 1000 ng/ml
[18] = hydrophobic polystyrene dish pre-incubated with medetomidine 10000 ng/ml
[19] = clonidine 0.027 ng/ml, as Example 1
[20] = clonidine 0.27 ng/ml, as Example 1
[21] = clonidine 2.7 ng/ml, as Example 1
[22] = clonidine 27 ng/ml, as Example 1
[23] = clonidine 270 ng/ml, as Example 1

For Cc1cccc(C(C)c2cnc[nH]2)c1C (racemic) [medetomidine, (±)-4-[1-(2,3-dimethylphenyl)-ethyl]-1H-imidazole-mono-hydrogen chloride], the Dead [1, 6] was 0%, the Settled [1, 6] was 52% and the Swimming [1, 6] was 48%. The Dead [1, 7] was 0%, the Settled [1, 7] was 1.5% and the Swimming [1, 7] was 98%. It also gave a Dead [1, 8] of 0%, a Settled [1, 8] of 0% and a Swimming [1, 8] of 100%. For the same molecule, the Dead [1, 9] was 0%, the Settled [1, 9] was 0% and the Swimming [1, 9] was 100%. It also gave a Dead [1, 10] of 0%, a Settled [1, 10] of 0% and a Swimming [1, 10] of 100%. The “number of established larvae” value ([1]; upon increased concentration of medetomidine (0.1 nM to 1 μM)) was “decreased upon increased concentration”, the “number of dead cyprids” value ([1]; upon increased contents of medetomidine (0.1 nM to 1 μM)) was “did not increase” and the “number of settled acorn barnacles” value (cyprid larvae [2]; also at very low medetomidine incubation concentrations) was “significant reduction”. It also gave a Dead (cyprid larvae [2]; [11]) of 0%, a Settled (cyprid larvae [2]; [11]) of 6.2% and a Swimming (cyprid larvae [2]; [11]) of 93.8%. The Dead (cyprid larvae [2]; [12]) was 0%, the Settled (cyprid larvae [2]; [12]) was 0% and the Swimming (cyprid larvae [2]; [12]) was 100%. For the same molecule, the Dead (cyprid larvae [2]; [13]) was 0%, the Settled (cyprid larvae [2]; [13]) was 0% and the Swimming (cyprid larvae [2]; [13]) was 100%. For the same molecule, the Dead (cyprid larvae [2]; [14]) was 0%, the Settled (cyprid larvae [2]; [14]) was 0% and the Swimming (cyprid larvae [2]; [14]) was 100%. It also gave a Dead (cyprid larvae [3]; [15]) of 0%, a Settled (cyprid larvae [3]; [15]) of 63.1% and a Swimming (cyprid larvae [3]; [15]) of 36.9%. For the same molecule, the Dead (cyprid larvae [3]; [16]) was 2.1%, the Settled (cyprid larvae [3]; [16]) was 33.3% and the Swimming (cyprid larvae [3]; [16]) was 65%. The Dead (cyprid larvae [3]; [17]) was 0%, the Settled (cyprid larvae [3]; [17]) was 0% and the Swimming (cyprid larvae [3]; [17]) was 100%. For the same molecule, the Dead (cyprid larvae [3]; [18]) was 2.1%, the Settled (cyprid larvae [3]; [18]) was 0% and the Swimming (cyprid larvae [3]; [18]) was 97.9%. The “Number of Balanus improvisus/10 cm^2” value ([4]; 2 weeks in the sea) was 4.63 ± 1.04 /10 cm^2, the “Number of Balanus improvisus/10 cm^2” value ([4]; 4 weeks in the sea) was 5.6 ± 1.4 /10 cm^2 and the “Number of Balanus improvisus/10 cm^2” value ([4]; 8 weeks in the sea) was 148.1 ± 16.24 /10 cm^2. For the same molecule, the “number of acorn barnacles on the test surfaces compared with the control surfaces” value ([4]; paint with 0.02% by weight medetomidine, 2, 4 and 8 weeks) was “significant reduction”, the “effect on settling of polychaete larvae” value ([5]; concentration span of from 0.1 nM to 100 μM) was “significant inhibiting effect” and the Dead ([5]; medetomidine 0.1 nM) was 2.3%. The Settled ([5]; medetomidine 0.1 nM) was 9.3%, the Swimming ([5]; medetomidine 0.1 nM) was 88.4% and the Dead ([5]; medetomidine 1 nM) was 5.4%. The Settled ([5]; medetomidine 1 nM) was 5.4%, the Swimming ([5]; medetomidine 1 nM) was 89.2% and the Dead ([5]; medetomidine 10 nM) was 4.4%. For the same molecule, the Settled ([5]; medetomidine 10 nM) was 0%, the Swimming ([5]; medetomidine 10 nM) was 95.6% and the Dead ([5]; medetomidine 100 nM) was 20%. The Settled ([5]; medetomidine 100 nM) was 0%, the Swimming ([5]; medetomidine 100 nM) was 80% and the Dead ([5]; medetomidine 1000 nM) was 45.7%. The Settled ([5]; medetomidine 1000 nM) was 0%, the Swimming ([5]; medetomidine 1000 nM) was 54.3% and the Dead ([5]; medetomidine 100 000 nM) was 100%. The Settled ([5]; medetomidine 100 000 nM) was 0%, the Swimming ([5]; medetomidine 100 000 nM) was 0% and the “toxic effects on polychaete larvae” value ([5]; span from 100 nM to 100 μM) was “toxic effects appear”.
In the case of Clc1cccc(Cl)c1NC1=NCCN1 [clonidine, 2-(2,6-di-chloro-anilino)-2-imidazoline], the Dead ([1]; Balanus improvisus, in vivo, 11 days, 0.027 ng/ml) is reported as 0%, the Dead ([1]; Balanus improvisus, in vivo, 11 days, 0.27 ng/ml) is reported as 0% and the Dead ([1]; Balanus improvisus, in vivo, 11 days, 2.7 ng/ml) is reported as 1.7%. The Dead ([1]; Balanus improvisus, in vivo, 11 days, 27 ng/ml) was 1.5%, the Dead ([1]; Balanus improvisus, in vivo, 11 days, 270 ng/ml) was 8.3% and the Settled [1, 19] was 36.7%. The Swimming [1, 19] was 65.7%, the Settled [1, 20] was 22.3% and the Swimming [1, 20] was 77.7%. For the same molecule, the Settled [1, 21] was 1.8%, the Swimming [1, 21] was 96.5% and the Settled [1, 22] was 0%. For the same molecule, the Swimming [1, 22] was 98.5%, the Settled [1, 23] was 0% and the Swimming [1, 23] was 91.7%.
